Results published in patent US20100144008A1, “TREATMENT OF FABRY DISEASE” (ACADEMISCH ZIEKENHUIS BIJ DE UNIVERSITEIT VAN AMSTERDAM, priority 2006, published 2010).
Like-named read-outs stand apart in the source and are kept apart here.

How the values were obtained:
[1] = Plasma circulation of alphaGAL replacement enzyme in mouse model of Fabry disease; format: in vivo; details: compared to underivatised agalsidase beta
Description: Via standard methods agalsidase beta (Fabrazyme®, Genzyme) is pegylated.
In a mouse model of Fabry disease at different time-points plasma samples are analysed for the presence of agalsidase beta to give reference values and at the same different time-points plasma samples are analysed for the presence of pegylated agalsidase beta.

lyso-CTH = experiment: Plasma lyso-CTH concentration in mouse model of Fabry disease after enzyme; format: in vivo; details: compared to underivatised agalsidase beta
alpha-galactosidase A = molecular target: T1, alpha-galactosidase A (Homo sapiens, UniProt P06280); experiment: Inhibition of alpha-galactosidase A by lyso-CTH; format: biochemical
T1 sequence (P06280 32-429): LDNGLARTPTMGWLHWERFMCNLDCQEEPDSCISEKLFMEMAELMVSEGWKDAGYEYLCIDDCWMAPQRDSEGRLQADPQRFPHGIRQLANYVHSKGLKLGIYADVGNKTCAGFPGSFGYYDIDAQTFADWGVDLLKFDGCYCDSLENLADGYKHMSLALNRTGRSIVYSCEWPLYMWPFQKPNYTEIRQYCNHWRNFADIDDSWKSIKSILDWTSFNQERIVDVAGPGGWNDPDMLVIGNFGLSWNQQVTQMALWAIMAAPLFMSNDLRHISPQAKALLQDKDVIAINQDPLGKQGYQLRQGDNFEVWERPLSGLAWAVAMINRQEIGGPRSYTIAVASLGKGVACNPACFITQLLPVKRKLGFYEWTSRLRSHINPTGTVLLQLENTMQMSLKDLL

[2] = Partitioning of lyso-CTH in Bligh and Dyer and butanol/water extraction; format: physicochemical
Description: An optimal extraction procedure for lyso-CTH from plasma samples was established. A double extraction was carried out, first a Bligh and Dyer extraction followed by butanol extraction.

alpha-galactosidase B = molecular target: T2, alpha-galactosidase B (Homo sapiens, UniProt P17050); experiment: Inhibition of alpha-galactosidase B by lyso-CTH; format: biochemical
T2 sequence (P17050 18-411): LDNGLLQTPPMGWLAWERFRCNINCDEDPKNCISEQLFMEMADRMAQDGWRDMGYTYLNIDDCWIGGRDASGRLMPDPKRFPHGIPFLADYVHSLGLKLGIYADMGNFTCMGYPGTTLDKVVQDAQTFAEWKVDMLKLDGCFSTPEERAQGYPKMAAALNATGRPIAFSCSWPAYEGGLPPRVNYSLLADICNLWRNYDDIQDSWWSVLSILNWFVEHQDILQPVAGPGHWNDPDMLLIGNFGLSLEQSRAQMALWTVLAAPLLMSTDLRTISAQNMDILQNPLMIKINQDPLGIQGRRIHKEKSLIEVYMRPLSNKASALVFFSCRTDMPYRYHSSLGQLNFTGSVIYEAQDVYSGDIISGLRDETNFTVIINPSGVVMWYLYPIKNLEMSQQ

SMC-41 cell line = experiment: Toxic effect in vitro: 3H thymidine incorporation and proliferation in SMC-41 cell line; format: cell-based; details: lyso-CTH 0.065-0.65 μM (as found in plasma of Fabry patients); for proliferation of SMC-41 (smooth muscle cell proliferation): in vitro
Description: The toxic effect of lyso-CTH was determined in vitro in SMC-41 cell line. ^3H thymidine incorporation (per 24 h) was determined as a function of lyso-CTH concentration.

Compound | plasma circulation time [1] | concentration of lyso-CTH in the plasma samples (lyso-CTH) | Inhibition of alpha-galactosidase A (alpha-galactosidase A) | Inhibition of alpha-galactosidase A (alpha-galactosidase A; listed as Lyso-CTH) | Partitioning of lyso-CTH (% of total), lower phase ([2]; Bligh and Dyer extraction) | Partitioning of lyso-CTH (% of total), upper phase ([2]; Bligh and Dyer extraction) | Partitioning of lyso-CTH (% of total), lower phase ([2]; butanol/water extraction) | Partitioning of lyso-CTH (% of total), upper phase ([2]; butanol/water extraction) | Inhibition of alpha-galactosidase B (alpha-galactosidase B) | Inhibition of alpha-galactosidase B (alpha-galactosidase B; listed as Lyso-CTH) | 3H thymidine incorporation (per 24 h) (SMC-41 cell line; SMC-41 cell line) | proliferation of SMC-41 (smooth muscle cell proliferation) (SMC-41 cell line) | proliferation of SMC-41 (smooth muscle cell proliferation) (SMC-41 cell line; listed as Lyso-CTH)
pegylated agalsidase beta: agalsidase beta (Fabrazyme, Genzyme) pegylated via standard methods | increase in plasma circulation time | significantly lower | – | – | – | – | – | – | – | – | – | – | –
CCCCCCCCCCCCC/C=C/[C@@H](O)[C@@H](N)CO[C@@H]1O[C@H](CO)[C@@H](O[C@@H]2O[C@H](CO)[C@H](O[C@H]3O[C@H](CO)[C@H](O)[C@H](O)[C@H]3O)[C@H](O)[C@H]2O)[C@H](O)[C@H]1O [lyso-CTH, lyso-ceramide trihexosamide] | – | – | inhibits | potent inhibitor | 10 % of total | 90 % of total | 2 % of total | 99 % of total | inhibits | potent inhibitor | increased isotope incorporation | increased proliferation | promote in vitro smooth muscle cell proliferation
